Reference: patent US20230090742A1, “AMINOPYRIMIDINYLAMINOBENZONITRILE DERIVATIVES AS NEK2 INHIBITORS” (Sumitomo Pharma Oncology, Inc., priority 2020, published 2023)

Legend:
[1] = biological target: T1, NEK2 kinase (Accession No. NP-002488) (Homo sapiens, UniProt P51955); test: HotSpot Kinase Assay, NEK2; format: biochemical; details: HotSpot Kinase Assay; read-out: NEK2 IC50
T1 construct: purchased ThermoFisher Scientific (Invitrogen)
T1 sequence (P51955 1-445): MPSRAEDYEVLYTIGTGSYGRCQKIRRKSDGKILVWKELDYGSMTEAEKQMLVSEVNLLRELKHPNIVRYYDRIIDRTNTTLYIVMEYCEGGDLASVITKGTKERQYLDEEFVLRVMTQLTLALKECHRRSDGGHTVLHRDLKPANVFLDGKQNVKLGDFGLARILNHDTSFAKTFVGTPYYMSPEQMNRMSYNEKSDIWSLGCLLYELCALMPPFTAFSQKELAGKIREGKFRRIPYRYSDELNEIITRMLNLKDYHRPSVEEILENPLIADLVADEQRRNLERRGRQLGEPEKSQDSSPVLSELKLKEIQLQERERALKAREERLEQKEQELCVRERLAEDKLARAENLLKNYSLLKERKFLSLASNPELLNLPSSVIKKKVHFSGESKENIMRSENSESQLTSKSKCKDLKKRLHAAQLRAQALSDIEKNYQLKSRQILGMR
Method: In this example, the compounds described herein were tested for their inhibitory activity against NEK2 and/or Aurora A using the HotSpot™ Kinase Assay (Reaction Biology Corp.). The assay was performed according to the manufacturer's protocol, as detailed below. The NEK2 kinase (Accession No. NP-002488) and Aurora A kinase (Accession No. NP-940839) for use in these assays was sourced from ThermoFisher Scientific (Invitrogen).
The base Reaction Buffer used in this experiment contained the following: 20 mM Hepes (pH 7.5), 10 mM MgCl2, 1 mM EGTA, 0.02% Brij™-35, 0.02 mg/ml BSA, 0.1 mM Na3VO4, 2 mM DTT, and 1% DMSO. The required cofactors were added individually to each kinase reaction.
Testing compounds were dissolved in 100% DMSO to a specific concentration. The serial dilution was conducted by Integra Viaflo Assist in DMSO.
The substrate was prepared in freshly prepared Reaction Buffer. The required cofactors were delivered to the substrate solution described above. NEK2 kinase or Aurora A kinase was delivered to the substrate solution and gently mixed. Next, the compounds in 100% DMSO were transferred to the kinase reaction mixture by Acoustic technology (Echo550; nanoliter range) and incubated for 20 min at room temperature. ^33P-ATP (Specific activity 10 μCi/μl) was delivered into the reaction mixture to initiate the reaction. The reaction was incubated for 2 hours at room temperature. Radioactivity was then detected by the filter-binding method. Kinase activity data were expressed as the percent remaining kinase activity in test samples compared to vehicle (dimethyl sulfoxide) reactions. IC50 values and curve fits were obtained using Prism (GraphPad Software).

EZH2 expression = test: Flow cytometry analysis for EZH2 expression in SW480 cells; format: cell-based; details: Homo sapiens, 24 hours treatment, 0-1000 nM, haploid and diploid cells, read-out: dose dependent decrease in EZH2 expression, IC50
Method: Reagents. MDA-MB-231 (Breast adenocarcinoma, triple negative breast cancer) and SW480 (colorectal adenocarcinoma, stem-like subtype) cells were purchased from ATCC and cultured as per manufacturer's instruction. Thymidine (Sigma, T9250) stock solution (100 mM) was prepared in PBS. 2′-Deoxycytidine (Sigma, D897) stock solution (240 mM) was prepared in distilled H2O. Nocodazole (Selleck Chemicals, S2775) stock solution (5 mg/mL) was made in dimethyl sulfoxide (DMSO). FxCycle Far Red stain (F10348) for cell cycle analysis was purchased from Thermo Fisher Scientific.
Antibodies. Polyclonal antibodies to phosphorylated-Ser55 Hec1 (PA5-85846; 1:1000) were purchased from ThermoFisher Scientific, and Phospho-Thr320 PP1α (2581S; 1:1000) and Total PP1α (2582S; 1:1000) were purchased from Cell Signaling Technologies. Monoclonal antibodies to Phospho-Ser10 Histone H3 (53348S; 1:1000), Total Histone H3 (14269; 1:5000), and EZH2-FITC (30233, 1:50) antibodies were purchased from Cell Signaling Technologies; Total Hec1 (ab109496; 1:10000) was purchased from Abcam; and Total NEK2 (sc-55601; 1:200) and GAPDH (sc-365062; 1:1000-2000) antibodies were purchased from Santa Cruz Technologies.
Flow Cytometry Analysis. […] A minimum of 100,000 events were analyzed in each sample, and the results were evaluated using FlowJo software. […]

Compound: N#Cc1c(Nc2nc(Nc3ccc(N4CCNCC4)cc3)ncc2Cl)cccc1OCc1ccccc1F [Compound 16, 2-((5-chloro-2-((4-(piperazin-1-yl)phenyl)amino)pyrimidin-4-yl)amino)-6-((2-fluorobenzyl)oxy)benzonitrile]
- IC50 [1]: ≤ 5 nM
- IC50 (EZH2 expression): 184 nM
